Laboratory results taken from BindingDB's records for doi:10.1021/jm060662k (Abbott Laboratories, 2006).
pEC50: −log10 of the molar value.

Target: T1, D(4) dopamine receptor (Homo sapiens, UniProt P21917)
T1 sequence (P21917 whole entry): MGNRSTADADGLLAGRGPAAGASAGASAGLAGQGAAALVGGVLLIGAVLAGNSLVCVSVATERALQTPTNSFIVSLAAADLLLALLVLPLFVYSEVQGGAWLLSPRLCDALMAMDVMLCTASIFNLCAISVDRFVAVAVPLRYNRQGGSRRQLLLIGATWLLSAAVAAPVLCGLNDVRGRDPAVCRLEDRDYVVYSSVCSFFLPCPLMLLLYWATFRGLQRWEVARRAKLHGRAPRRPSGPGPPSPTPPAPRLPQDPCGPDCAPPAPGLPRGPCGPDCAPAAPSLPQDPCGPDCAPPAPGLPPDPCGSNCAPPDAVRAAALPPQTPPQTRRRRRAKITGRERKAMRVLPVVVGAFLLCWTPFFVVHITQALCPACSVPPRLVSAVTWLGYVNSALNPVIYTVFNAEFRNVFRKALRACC
Assay: Agonist activity at human D4.4 receptor in HEK293 cells coexpressing G-alpha-qo5 by FLIPR

c1ccc(N2CCN(Cc3nc4ccccc4[nH]3)CC2)nc1 [2-((4-(pyridin-2-yl)piperazin-1-yl)methyl)-1H-benzo[d]imidazole] gave a pEC50 of 7.92.
